In PubChem BioAssay (NCI):
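Cells were grown in 96-well plates and exposed to each compound for 48 hours at five concentrations; endpoints were interpolated linearly between bracketing concentrations, or set to the highest concentration if not reached. GI50: concentration for 50% inhibition of growth. TGI is the concentration that stops growth completely.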

Legend:
Assay in all cases: DTP human tumour cell line panel, 48 h
[1] = system: A549 NSCLC
[2] = system: HT29 colon
[3] = system: COLO 205 colon
[4] = system: U251 CNS
[5] = system: NCI-H226 lung
[6] = system: 786-0 renal
[7] = system: T-47D breast
[8] = system: HCT-116 colon
[9] = system: HCT-15 colon
[10] = system: SNB-19 CNS
[11] = system: HL-60(TB) leukemia
[12] = system: OVCAR-4 ovarian
[13] = system: UACC-62 melanoma
[14] = system: SK-MEL-5 melanoma
[15] = system: KM12 colon
[16] = system: NCI-H23 lung
[17] = system: NCI-H460 lung
[18] = system: MOLT-4 leukemia
[19] = system: MALME-3M melanoma
[20] = system: CCRF-CEM leukemia
[21] = system: SK-MEL-2 melanoma
[22] = system: K-562 leukemia
[23] = system: UO-31 renal
[24] = system: RXF 393 renal
[25] = system: CAKI-1 renal
[26] = system: IGROV1 ovarian
[27] = system: HOP-92 NSCLC
[28] = system: SNB-75 CNS
[29] = system: RPMI-8226 leukemia

SMILES: CCN(Cc1cccnc1)c1ccc(CO)c(Cl)c1
- GI50 [1]: 5.73 µM
- TGI [1]: > 75.8 µM
- GI50 [2]: 4.67 µM
- TGI [2]: > 100 µM
- GI50 [3]: 1.42 µM
- TGI [3]: 5.33 µM
- GI50 [4]: 3.75 µM
- TGI [4]: > 100 µM
- GI50 [5]: 0.0885 µM
- TGI [5]: 0.269 µM
- GI50 [6]: > 45.5 µM
- TGI [6]: > 100 µM
- GI50 [7]: 0.269 µM
- TGI [7]: 1.54 µM
- GI50 [8]: 0.298 µM
- TGI [8]: > 100 µM
- GI50 [9]: > 88.8 µM
- TGI [9]: > 100 µM
- GI50 [10]: > 100 µM
- TGI [10]: > 100 µM
- GI50 [11]: 22.6 µM
- TGI [11]: > 100 µM
- GI50 [12]: 0.433 µM
- TGI [12]: 4.63 µM
- GI50 [13]: 0.289 µM
- TGI [13]: 2.05 µM
- GI50 [14]: 15.1 µM
- TGI [14]: > 60.2 µM
- GI50 [15]: > 100 µM
- TGI [15]: > 100 µM
- GI50 [16]: 45 µM
- TGI [16]: > 100 µM
- GI50 [17]: 0.555 µM
- TGI [17]: 8.66 µM
- GI50 [18]: > 94.9 µM
- TGI [18]: > 100 µM
- GI50 [19]: > 100 µM
- TGI [19]: > 100 µM
- GI50 [20]: > 96 µM
- TGI [20]: > 100 µM
- GI50 [21]: > 37 µM
- TGI [21]: > 100 µM
- GI50 [22]: 5.58 µM
- TGI [22]: > 100 µM
- GI50 [23]: 20 µM
- TGI [23]: > 100 µM
- TGI [24]: > 100 µM
- GI50 [25]: 22.5 µM
- TGI [25]: > 100 µM
- GI50 [26]: 0.241 µM
- TGI [26]: 1.12 µM
- GI50 [27]: 3.21 µM
- TGI [27]: 66.4 µM
- GI50 [28]: 65.9 µM
- TGI [28]: > 100 µM
- GI50 [29]: 11.1 µM
- TGI [29]: > 100 µM
